Assay results published in patent US20240316052A1, “MITOCHONDRIAL SUPERCOMPLEX FORMATION PROMOTER, COMPOSITION FOR MAINTAINING OR IMPROVING MUSCULAR STRENGTH, THERAPEUTIC OR PREVENTATIVE PHARMACEUTICAL COMPOSITION FOR DISEASES WHICH DECREASE MITOCHONDRIAL FUNCTION OR MUSCULAR FUNCTION, AND SCREENING METHOD FOR SUBSTANCES WHICH CONTRIBUTE TO …” (TOKYO METROPOLITAN GERIATRIC HOSPITAL AND INSTITUTE OF …, priority 2021, published 2024).
Entries after “also recorded” stand apart in the source; their conditions may differ. Like-named read-outs stand apart in the source and are kept apart here.

Experiments:
Syk = Syk mRNA and protein expression after siRNA; format: cell-based, mouse; conditions: C2C12 cells
Description: Both mRNA and protein expression levels of Syk in C2C12 cells were suppressed by the above #1 and #2 siRNAs. The above siSyk was transfected into cells stably expressing NDUFB8-AcGFP and COX8A-DsRed monomer, and FRET signals were examined. FRET efficiency was increased in siSyk treatment, compared to siControl treatment (FIG. 7A). The formation of respiratory chain supercomplexes was compared using the same siRNA and mitochondrial fractions extracted from C2C12 cells in which Syk expression was suppressed, according to BN-PAGE. […] Oxygen consumption of C2C12 cells in siControl or siSyk treatment was measured using XFp Extracellular Flux Analyzer.

[1] = system: mitochondrial respiratory chain supercomplex formation (NDUFB8-AcGFP / COX8A-DsRed monomer); assay: FRET (cFRET/Donor) in C2C12 cells stably co-expressing NDUFB8-AcGFP and COX8A-DsRed monomer; format: cell-based, mouse
Description: In addition, the protein in which the subunit NDUFB8 of respiratory chain complex I was labeled with AcGFP, and the protein in which the subunit COX8A of respiratory chain complex IV labeled with DsRed monomer, were co-expressed, whereby the fluorescence of DsRed monomer was detected at the excitation wavelength of AcGFP, and the FRET efficiency can be calculated (FIG. 2B).
FRET signals between respiratory chain complex subunits in stably expressing cells were examined using C2C12 cells stably expressing both NDUFB8-AcGFP and COX8A-DsRed monomer and C2C12 cells stably expressing both UQCR11-AcGFP and ATP5F1c-DsRed monomer.
The sequences of siRNAs are as follows.
In the primary screening, the cFRET/Donor of living cells with 40 μM of each 1280 compound was measured using the C2C12 expressing cells stably co-expressing NDUFB8-AcGFP and COX8A-DsRed monomer established in this study (FIG. 5B). In the secondary screening, cFRET/Donor was measured by adding 40, 20, 10, 2.5, or 0.6 μM of each compound.
MNS was added to stably expressed C2C12 cells stepwise from low to high concentrations, and the cFRET/Donor was measured. […] In the following experiments, the respiratory chain supercomplex was examined in C2C12 cells under the condition of 1 μM addition.

mitochondrial function = conditions: already reported; cited from earlier work
[2] = system: respiratory chain supercomplexes I+III2+IV, I+III2, III2+IV; assay: BN-PAGE of mitochondrial fractions extracted from C2C12 cells; format: cell-based, mouse; conditions: compound added, compared to DMSO
C2C12 cells = assay: Oxygen consumption, XFp Extracellular Flux Analyzer; format: cell-based, mouse; conditions: 1 μM, compared to solvent-only control
Protocol: Oxygen consumption rate (OCR) was measured as follows. The C2C12 cells were seeded (5×10^3 cells/well) in […] (Agilent Tech, CA, USA) and incubated overnight before measuring OCR and ECAR. One hour before the measurement, the medium was replaced with XF base medium containing 1 mM sodium pyruvate, 2 mM […] and 25 mM glucose (Agilent Tech). Basal respiration, ATP production, and maximal respiration (spare respiratory capacity) of C2C12 cells were measured using XFp Extracellular Flux Analyzer (Agilent Tech) and Mito Stress Kit for XFp (Agilent Tech). The drugs were added in the following order: 1.0 μM oligomycin, 0.5 μM carbonyl cyanide-p-trifluoromethoxyphenylhydrazone, and 0.5 μM rotenone. The baseline (basal) OCR was measured three times before and after the addition of the drugs.

DBA/2CrSc1 mice [3] = assay: Wire-hang test in mice; format: in vivo; conditions: intraperitoneal, compared to DMSO-treated group
Protocol: (§1) Seven-week-old DBA/2CrSc1 mice were injected intraperitoneally with MNS, or DMSO as a control. […] In addition, the formation of respiratory chain supercomplexes by BN-PAGE were compared using mitochondrial fractions extracted from the extensor digitorum longus and soleus muscles of the mice in each group.

DBA/2CrSc1 mice [4] = assay: Treadmill test in mice; format: in vivo; conditions: intraperitoneal, compared to DMSO-treated group
Protocol: as §1

[5] = system: respiratory chain supercomplexes I+III2+IVn (n=1-2), I+III2, III2+IV; assay: BN-PAGE of mitochondrial fractions from extensor digitorum longus and soleus muscles of mice; format: in vivo; conditions: mitochondria of both extensor digitorum longus and soleus muscles, compared to DMSO
Protocol: as §1

[6] = Toxicity and body weight in mice, intraperitoneal injection; conditions: seven-week-old DBA/2CrSc1 mice, vs DMSO
Protocol: as §1

[7] = primary 40 μM; secondary 40, 20, 10, 2.5, 0.6 μM; then BN-PAGE
[8] = compound added, compared to DMSO

Compound | mRNA expression level of Syk (Syk) | protein expression level of Syk (Syk) | outcome of three-step screening (FRET and BN-PAGE) of LOPAC 1280 for compounds that promote respiratory chain supercomplex formation [1, 7] | formation of respiratory chain supercomplexes I+III2+IV, I+III2, III2+IV (BN-PAGE) [2] | basal respiration (C2C12 cells) | maximal respiration (spare respiratory capacity) (C2C12 cells) | time holding the wire (DBA/2CrSc1 mice [3]) | running distance (DBA/2CrSc1 mice [4]) | running time (DBA/2CrSc1 mice [4]) | change in body weight [6] | toxicity [6] | also measured
siSyk #2: siRNA against Syk, sense strand SEQ ID NO:3 and antisense strand SEQ ID NO:4 (sense UUAAUCUUGACAGUAAGACAC; antisense GUCUUACUGUCAAGAUUAAUU; listed as RNA, chemistry not given here) | suppressed | suppressed |  |  |  |  |  |  |  |  |  | 
CC1(C)CCC2=C(O1)c1ccccc1C(=O)C2=O [Beta-lapachone] |  |  | screened |  |  |  |  |  |  |  |  | mitochondrial function (mitochondrial function): improve mitochondrial function
O=[N+]([O-])/C=C/c1ccc2c(c1)OCO2 [MNS, 3,4-methylenedioxy-β-nitrostyrene] |  |  | screened | increased | significant increases | significant increases | significantly prolonged | significantly longer | significantly longer | no change | no significant toxicity | FRET efficiency between subunit fluorescent fusion proteins of respiratory chain complexes I and IV [1, 8]: increase; corrected value of cFRET/Donor [1, 8]: significantly increased; also recorded: improvement; EC50 ([1]; read-out: 50% effective concentration (EC50) from cFRET/Donor dose-response curve; stably expressed C2C12 cells, added stepwise from low to high concentrations): 574 nM; formation of respiratory chain supercomplexes I+III2+IVn (n=1-2), I+III2, III2+IV (BN-PAGE) [5]: increased
siSyk #1: siRNA against Syk, sense strand SEQ ID NO:1 and antisense strand SEQ ID NO:2 (sense AAUGAAUUCAACAUACAGGGA; antisense CCUGUAUGUUGAAUUCAUUGA; listed as RNA, chemistry not given here) | suppressed | suppressed |  |  |  |  |  |  |  |  |  | 
COc1ccc(-c2cc3nccn3c(Nc3ncccc3C(N)=O)n2)cc1OC [BAY61-3606, 2-[[7-(3,4-dimethoxyphenyl)imidazo[1,2-c]pyrimidin-5-yl]amino]pyridine-3-carboxamide] |  |  |  | increased | significant increases | significant increases | significantly prolonged | significantly longer | significantly longer | no change | no significant toxicity | EC50 ([1]; stably expressed C2C12 cells, added stepwise from low to high concentrations; read-out: 50% effective concentration (EC50) from cFRET/Donor dose-response curve): 1000 nM; ATP production (C2C12 cells): significant increases
